From patent publication US20100249145A1, “Inhibitors of VEGF Receptor and HGF Receptor Signaling” (Methylgene, Inc., priority 2005, published 2010)
Read-outs that look alike come from different tables or passages of the source.

Tests used:
[1] = molecular target: T1, recombinant human c-Met/HGF receptor (Homo sapiens, UniProt P08581); test: In vitro receptor tyrosine kinase assay (DELFIA), c-Met/HGF receptor; assay type: biochemical; settings: ATP 10 uM, enzyme 25 nM
T1 construct: His tag (histidine tag from pBlueBacHis2A); made in house; host or cells: Hi-5 cells (Trichoplusia ni), recombinant baculovirus
T1 sequence (P08581 1078-1337): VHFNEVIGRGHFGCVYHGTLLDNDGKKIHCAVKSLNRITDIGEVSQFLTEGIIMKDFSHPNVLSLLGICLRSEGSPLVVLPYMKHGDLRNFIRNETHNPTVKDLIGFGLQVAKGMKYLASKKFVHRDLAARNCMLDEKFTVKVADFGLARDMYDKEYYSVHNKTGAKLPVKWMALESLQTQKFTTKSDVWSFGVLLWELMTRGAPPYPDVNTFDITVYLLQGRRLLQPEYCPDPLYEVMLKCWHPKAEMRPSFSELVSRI

[2] = tested on: DU145; test: DU145 scattering inhibition (HGF dependent scattering); assay type: cell-based; settings: Homo sapiens, DU-145, Table 31, read-out: DU145 scattering inhib IC50
From the text: (§1) HGF has well known activity in terms of inducing scattering and migration (wound healing) (Wells et al., Cell Motil Cytoskeleton. 2005 November 62(3):180-94; Miura et al., Urology 2001 December 58(6):1064-9; Nishimura et al., Int J. Urol. 1998 May 5(3):276-81; Wang et al., Mol Cancer Ther. 2003 November; 2(11):1085-92; and Christensen et al., Cancer Res. 2003 Nov. 1; 63(21):7345-55).

[3] = tested on: A549; test: A549 wound healing inhibition (HGF dependent migration); assay type: cell-based; settings: Homo sapiens, Table 31, read-out: A549 wound healing inbib IC50
From the text: as §1

[4] = molecular target: T2, VEGF receptor KDR (Homo sapiens, UniProt P35968); test: In vitro receptor tyrosine kinase assay (DELFIA), VEGF receptor KDR; assay type: biochemical; settings: ATP 0.6 uM, enzyme 5 nM
T2 construct: made in house; host or cells: Sf9 cells (Spodoptera frugiperda), recombinant baculovirus
T2 sequence (P35968 806-1356): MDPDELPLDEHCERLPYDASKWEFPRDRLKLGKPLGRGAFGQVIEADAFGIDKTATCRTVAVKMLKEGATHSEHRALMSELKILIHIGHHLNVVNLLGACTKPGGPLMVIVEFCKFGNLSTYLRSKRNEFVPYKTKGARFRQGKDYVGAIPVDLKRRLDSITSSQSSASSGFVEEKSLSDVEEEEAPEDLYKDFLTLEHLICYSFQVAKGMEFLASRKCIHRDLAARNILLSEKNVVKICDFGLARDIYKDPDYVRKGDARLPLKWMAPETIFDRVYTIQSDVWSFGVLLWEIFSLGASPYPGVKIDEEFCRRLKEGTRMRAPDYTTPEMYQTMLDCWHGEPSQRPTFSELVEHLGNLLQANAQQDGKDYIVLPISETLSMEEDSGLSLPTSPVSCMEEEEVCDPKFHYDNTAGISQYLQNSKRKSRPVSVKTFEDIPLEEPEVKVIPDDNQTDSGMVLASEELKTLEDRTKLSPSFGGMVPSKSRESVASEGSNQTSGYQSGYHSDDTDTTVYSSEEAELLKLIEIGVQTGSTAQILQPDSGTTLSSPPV
From the text: In Vitro Receptor Tyrosine Kinase Assays (c-Met/HGF receptor and VEGF Receptor KDR)
In the case of VEGF receptor KDR a 1.6-kb cDNA corresponding to the catalytic domain of VEGFR2 or KDR (Genbank accession number AF035121 amino acid 806 to 1356) was cloned into the Pst I site of the pDEST20 Gateway vector (Invitrogen) for the production of a GST-tagged version of that enzyme.
The GST-VEGFR2806-1356 protein was expressed in Sf9 cells (Spodoptera frugiperda) upon infection with recombinant baculovirus construct.
The supernatant was loaded onto a GST-agarose column (Sigma) equilibrated with PBS pH 7.3. Following a four column volume (CV) wash with PBS pH 7.3+1% Triton X-100 and 4 CV wash with buffer B (50 mM Tris pH 8.0, 20% glycerol and 100 mM NaCl), bound proteins were step eluted with 5 CV of buffer B supplemented with 5 mM DTT and 15 mM glutathion. […] Final GST-VEGFR2806-1356 protein preparations concentrations were about 0.7 mg/ml with purity approximating 70%.

[5] = Table 30, read-out: VEGF(enz.) (IC50)
[6] = Table 30, read-out: C-Met (enz.) (IC50)

Row | SMILES | IC50 ([1]; Table 31, read-out: CMet ic50) [nM] | IC50 [2] [nM] | IC50 [3] [nM] | IC50 ([4]; Table 31, read-out: VEGFR IC50) [nM] | IC50 [4, 5] [nM] | IC50 [1, 6] [nM]
1 | CCn1cnc(-c2cc3nccc(Oc4ccc(NC(=S)NC(=O)Cc5ccccc5O)cc4F)c3s2)c1 | < 50 | 1000 to 5000 | 1000 to 5000 | < 50 | – | –
2 | CCn1cncc1-c1cc2nccc(Oc3ccc(NC(=S)NC(=O)Cc4ccccc4OC)cc3F)c2s1 | < 50 | < 1000 | 1000 to 5000 | – | – | –
3 | Cc1ccccc1CC(=O)NC(=S)Nc1ccc(Oc2ccnc3cc(-c4cn(C)cn4)sc23)c(F)c1 | < 50 | – | < 1000 | < 50 | – | –
4 | C#Cc1cccc(CC(=O)NC(=S)Nc2ccc(Oc3ccnc4cc(-c5cn(C)cn5)sc34)c(F)c2)c1 | < 50 | 1000 to 5000 | 1000 to 5000 | < 50 | – | –
5 | C#Cc1ccc(CC(=O)NC(=S)Nc2ccc(Oc3ccnc4cc(-c5cn(CCN6CCCC6)cn5)sc34)c(F)c2)cc1 | 50 to 250 | > 10000 | > 10000 | < 50 | – | –
6 | C#Cc1ccc(CC(=O)NC(=S)Nc2ccc(Oc3ccnc4cc(-c5ccc(CN6CCN(C)CC6)cc5)sc34)c(F)c2)cc1 | 50 to 250 | 1000 to 5000 | > 10000 | < 50 | – | –
7 | C#Cc1ccc(CC(=O)NC(=S)Nc2ccc(Oc3ccnc4cc(-c5nccn5C)sc34)c(F)c2)cc1F | 50 to 250 | 1000 to 5000 | < 1000 | < 50 | – | –
8 | C#Cc1ccc(F)c(CC(=O)NC(=S)Nc2ccc(Oc3ccnc4cc(-c5cn(C)cn5)sc34)c(F)c2)c1 | < 50 | 1000 to 5000 | 1000 to 5000 | < 50 | – | –
9 | C#Cc1ccc(F)c(CC(=O)NC(=S)Nc2ccc(Oc3ccnc4cc(-c5nccn5C)sc34)c(F)c2)c1 | < 50 | 1000 to 5000 | 1000 to 5000 | < 50 | – | –
10 | C#Cc1cc(F)ccc1CC(=O)NC(=S)Nc1ccc(Oc2ccnc3cc(-c4cn(C)cn4)sc23)c(F)c1 | < 50 | < 1000 | < 1000 | < 50 | – | –
11 | C#Cc1cc(F)ccc1CC(=O)NC(=S)Nc1ccc(Oc2ccnc3cc(-c4cn(CC)cn4)sc23)c(F)c1 | < 50 | < 1000 | < 1000 | < 50 | – | –
12 | C#Cc1ccc(CC(=O)NC(=S)Nc2ccc(Oc3ccnc4cc(-c5cn(CC)cn5)sc34)c(F)c2)cc1F | 50 to 250 | 1000 to 5000 | > 10000 | < 50 | – | –
13 | C#Cc1cc(F)ccc1CC(=O)NC(=S)Nc1ccc(Oc2ccnc3cc(-c4nccn4C)sc23)c(F)c1 | < 50 | < 1000 | < 1000 | < 50 | – | –
14 | C#Cc1cc2nccc(Oc3ccc(NC(=S)NC(=O)Cc4ccccc4)cc3F)c2s1 | 50 to 250 | 1000 to 5000 | > 10000 | > 500 | – | –
15 | CNC(=O)N1CCN(Cc2ccc(-c3cc4nccc(Oc5ccc(NC(=S)NC(=O)Cc6ccccc6)cc5F)c4s3)cc2)CC1 | < 50 | < 1000 | < 1000 | < 50 | – | –
16 | CNC(=O)N1CCN(Cc2ccc(-c3cc4nccc(Oc5ccc(NC(=S)NC(=O)Cc6ccc(F)cc6)cc5F)c4s3)cc2)CC1 | < 50 | < 1000 | < 1000 | < 50 | – | –
17 | COCCNCc1ccc(-c2cc3nccc(Oc4ccc(NC(=S)NC(=O)Cc5ccc(F)cc5)cc4F)c3s2)nc1 | – | < 1000 | < 1000 | < 50 | – | –

Row | SMILES | IC50 ([1]; Table 31, read-out: CMet ic50) [nM] | IC50 [2] [nM] | IC50 [3] [nM] | IC50 ([4]; Table 31, read-out: VEGFR IC50) [nM] | IC50 [4, 5] [nM] | IC50 [1, 6] [nM]
18 | COCCN(CCOC)Cc1cccc(-c2cc3nccc(Oc4ccc(NC(=S)NC(=O)Cc5ccc(F)cc5)cc4F)c3s2)c1 | < 50 | < 1000 | < 1000 | – | – | –
19 | CN(CCO)Cc1ccc(-c2cc3nccc(Oc4ccc(NC(=S)NC(=O)Cc5ccc(F)cc5)cc4F)c3s2)nc1 | < 50 | < 1000 | – | < 50 | – | –
20 | COCCNCc1ccc(-c2cc3nccc(Oc4ccc(NC(=S)NC(=O)Cc5ccc(F)cc5)cc4F)c3s2)c(F)c1 | – | < 1000 | < 1000 | – | – | –
21 | CCCNCc1ccc(-c2cc3nccc(Oc4ccc(NC(=S)NC(=O)Cc5ccc(F)cc5)cc4F)c3s2)cc1 | – | < 1000 | < 1000 | – | – | –
22 | CNC(=O)c1cc2nccc(Oc3ccc(NC(=S)NC(=O)Cc4ccccc4)cc3F)c2s1 [Example 5, 1-(4-(2-(methylcarbamoyl)thieno[3,2-b]pyridin-7-yloxy)-3-fluorophenyl)-3-(2-phenylacetyl)thiourea] | – | – | – | – | 50 to 250 | –
23 | NC(=O)c1cc2nccc(Oc3ccc(NC(=S)NC(=O)Cc4ccccc4)cc3F)c2s1 [Example 9, 1-(4-(2-carbamoylthieno[3,2-b]pyridin-7-yloxy)-3-fluorophenyl)-3-(2-phenylacetyl)thiourea] | – | – | – | – | 50 to 250 | –
24 | O=C(Cc1ccccc1)NC(=S)Nc1ccc(Oc2ccnc3cc(-c4ncccn4)sc23)c(F)c1 [Example 14, N-(3-Fluoro-4-(2-(pyrimidin-2-yl)thieno[3,2-b]pyridin-7-yloxy)phenylcarbamothioyl)-2-phenylacetamide] | – | – | – | – | 50 to 250 | –
25 | O=C(Cc1ccccc1)NC(=S)Nc1ccc(Oc2ccnc3cc(-c4cccs4)sc23)c(F)c1 [Example 16] | – | – | – | – | < 50 | –
26 | O=C(Cc1ccccc1)NC(=S)Nc1ccc(Oc2ccnc3cc(-c4cccnc4)sc23)c(F)c1 [Example 18] | – | – | – | – | 50 to 250 | –
27 | CC(O)c1cc2nccc(Oc3ccc(NC(=S)NC(=O)Cc4ccccc4)cc3F)c2s1 (stereo not drawn) [Example 20, 1-(4-(2-(1-Hydroxyethyl)thieno[3,2-b]pyridin-7-yloxy)-3-fluorophenyl)-3-(2-phenylacetyl)thiourea] | – | – | – | – | > 500 | –
28 | CNC(=O)c1cc2ncnc(Oc3ccc(NC(=S)NC(=O)Cc4ccccc4)cc3F)c2s1 [Example 25, 1-(4-(6-(Methylcarbamoyl)thieno[3,2-d]pyrimidin-4-yloxy)-3-fluorophenyl)-3-(2-phenylacetyl)thiourea] | – | – | – | – | 50 to 250 | 50 to 250
29 | CON(C)C(=O)c1cc2ncnc(Oc3ccc(NC(=S)NC(=O)Cc4ccccc4)cc3F)c2s1 [Example 26, 1-(4-(6-(N-Methoxy-N-methylcarbamoyl)thieno [3,2-d]pyrimidin-4-yloxy)-3-fluorophenyl)-3-(2-phenylacetyl)thiourea] | – | – | – | – | 50 to 250 | 50 to 250
30 | NC(=O)c1cc2ncnc(Oc3ccc(NC(=S)NC(=O)Cc4ccccc4)cc3F)c2s1 [Example 27, 1-(4-(6-Carbamoylthieno[3,2-d]pyrimidin-4-yloxy)-3-fluorophenyl)-3-(2-phenylacetyl)thiourea] | – | – | – | – | 50 to 250 | 50 to 250
31 | Cn1ccc2ncnc(Oc3ccc(NC(=S)NC(=O)Cc4ccccc4)cc3F)c21 [Example 28, 1-(4-(5-Methyl-5H-pyrrolo[3,2-d]pyrimidin-4-yloxy)-3-fluorophenyl)-3-(2-phenylacetyl)thiourea] | – | – | – | – | > 500 | 50 to 250
32 | CCn1ccc2ncnc(Oc3ccc(NC(=S)NC(=O)Cc4ccccc4)cc3F)c21 [Example 29, 1-(4-(5-Ethyl-5H-pyrrolo[3,2-d]pyrimidin-4-yloxy)-3-fluorophenyl)-3-(2-phenylacetyl)thiourea] | – | – | – | – | > 500 | 250 to 500
33 | O=C(Cc1ccccc1)NC(=S)Nc1ccc(Oc2ccnc3ccsc23)c(F)c1 [Example 133, N-(3-Fluoro-4-(thieno[3,2-b]pyridin-7-yloxy)phenylcarbamothioyl)-2-phenylacetamide] | – | – | – | – | 50 to 250 | –
34 | O=C(Cc1ccccc1)NC(=S)Nc1ccc(Oc2ccnc3ccsc23)cc1 [Example 188, 2-Phenyl-N-(4-(thieno[3,2-b]pyridin-7-yloxy)phenylcarbamothioyl)acetamide] | – | – | – | – | > 500 | –
